pEC50: −log10 of the molar value. Read-outs that look alike come from different tables or passages of the source.
Experiments:
[1] = biological target: T1, human recombinant OX2 (hOX2) receptors expressed in CHO cells (Homo sapiens, UniProt O43614); assay: IP-1 accumulation assay (IP-One HTRF) in hOX2-CHO cells; format: cell-based; conditions: 60 min incubation at 37° C., mean of at least two independent experiments, read-out: EC50_OX2R Category
T1 construct: host or cells: CHO cells (hOX2-CHO)
T1 sequence (O43614 1-444): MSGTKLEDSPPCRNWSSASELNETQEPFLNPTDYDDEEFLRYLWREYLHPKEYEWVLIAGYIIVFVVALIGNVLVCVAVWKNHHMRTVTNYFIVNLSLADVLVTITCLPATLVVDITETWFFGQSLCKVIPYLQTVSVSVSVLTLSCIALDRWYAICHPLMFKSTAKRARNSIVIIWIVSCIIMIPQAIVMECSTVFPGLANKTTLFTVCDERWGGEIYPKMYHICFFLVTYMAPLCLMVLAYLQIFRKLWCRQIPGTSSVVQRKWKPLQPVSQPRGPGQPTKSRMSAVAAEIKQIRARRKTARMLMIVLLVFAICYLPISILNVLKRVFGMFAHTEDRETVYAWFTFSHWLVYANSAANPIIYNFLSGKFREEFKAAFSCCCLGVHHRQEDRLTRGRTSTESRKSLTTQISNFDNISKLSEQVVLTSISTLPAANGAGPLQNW
Outline: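 IP-1 HTRF (665/615 ratio) after 60 min compound exposure at 37 °C, 11-point dilution, 0.5% DMSO, LiCl-containing HEPES-buffered HBSS pH 7.4. Response expressed as percent of maximal OX-A effect; EC50 by four-parameter logistic fit, averaged over at least two independent experiments in duplicate.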

Compound `C[C@@H]1CC2(COCC(=O)N2)C2Cc3cccc(c3F)-c3ccccc3OCCCC(=O)N21` (mixture of isomers) [Example 27, (14′R)-23′-fluoro-14′-methyl-8′-oxa-13′-azaspiro[morpholine-3,16′-tetracyclo[17.3.1.0^2,70.0^13,17]tricosane]-1′(23′),2′(7′),3′,5′,19′,21′-hexaene-5, 12′-dione] has a ring closure, yield of all isomers (from C[C@@H]1CC2(COCC(=O)N2)C(Cc2cccc(-c3ccccc3OCCCC(=O)O)c2F)N1, amide bond, HATU, MeCN, 2.3 mM, 25.0 °C, 2.5 h) of 84.9% and a pEC50 [1] of 6.00 to 7.00.
For `Cc1ccnc2c1[C@H]1CC[C@H](CC1)OCC1N(CCCC13COCC(=O)N3)C(=O)CO2` (stereo partly shown) [Example 77, (1′s,19′s)-3′-methyl-8′,18′-dioxa-6′,11′-diazaspiro[morpholine-3,15′-tetracyclo[17.2.2.0^2,70.0^11,16]tricosane]-2′,4′,6′-triene-5,10′-dione], the ring closure, yield of all isomers (from Cc1ccnc(O)c1[C@H]1CC[C@@H](OCC2N(C(=O)CCl)CCCC23COCC(=O)N3)CC1, ether bond, K2CO3, acetonitrile, 2.06 mM, 90.0 °C, 12.0 h) was 9.4% and the pEC50 [1] was > 7.00.

— patent publication US20250320227A1, “MACROCYCLIC OREXIN RECEPTOR AGONISTS AND USES THEREOF” (Jazz Pharmaceuticals Ireland Limited, priority 2022, published 2025)
